PubChem BioAssay (NCI)
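1) Cells in 96-well plates. 2) Compound, 48 h, 5 concentrations. 3) Linear interpolation between surrounding doses. 4) Unreached endpoint = highest concentration. GI50 = concentration required for 50% inhibition of growth. Definition used: TGI = concentration required for complete inhibition of growth.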

Key:
Experiment in all cases: DTP human tumour cell line panel, 48 h
MALME-3M melanoma = system: MALME-3M melanoma
A498 renal = system: A498 renal
HS 578T breast = system: HS 578T breast
EKVX NSCLC = system: EKVX NSCLC
DU-145 prostate = system: DU-145 prostate
SNB-19 CNS = system: SNB-19 CNS
NCI-H226 lung = system: NCI-H226 lung
CAKI-1 renal = system: CAKI-1 renal
A549 NSCLC = system: A549 NSCLC
IGROV1 ovarian = system: IGROV1 ovarian
UO-31 renal = system: UO-31 renal
U251 CNS = system: U251 CNS
HOP-92 NSCLC = system: HOP-92 NSCLC
SK-OV-3 ovarian = system: SK-OV-3 ovarian
COLO 205 colon = system: COLO 205 colon
KM12 colon = system: KM12 colon
UACC-62 melanoma = system: UACC-62 melanoma
NCI/ADR-RES ovarian = system: NCI/ADR-RES ovarian
SR leukemia = system: SR leukemia
HCT-116 colon = system: HCT-116 colon
MOLT-4 leukemia = system: MOLT-4 leukemia
SNB-75 CNS = system: SNB-75 CNS
M14 melanoma = system: M14 melanoma
SW-620 colon = system: SW-620 colon
CCRF-CEM leukemia = system: CCRF-CEM leukemia
TK-10 renal = system: TK-10 renal
SK-MEL-2 melanoma = system: SK-MEL-2 melanoma
MDA-MB-231 breast = system: MDA-MB-231 breast
786-0 renal = system: 786-0 renal
K-562 leukemia = system: K-562 leukemia
HCT-15 colon = system: HCT-15 colon
RPMI-8226 leukemia = system: RPMI-8226 leukemia
SF-268 CNS = system: SF-268 CNS
RXF 393 renal = system: RXF 393 renal
MCF7 breast = system: MCF7 breast
T-47D breast = system: T-47D breast
HL-60(TB) leukemia = system: HL-60(TB) leukemia
MDA-MB-435 = system: MDA-MB-435
SF-539 CNS = system: SF-539 CNS
HOP-62 NSCLC = system: HOP-62 NSCLC
LOX IMVI melanoma = system: LOX IMVI melanoma
SN12C renal = system: SN12C renal
OVCAR-8 ovarian = system: OVCAR-8 ovarian
SK-MEL-5 melanoma = system: SK-MEL-5 melanoma
NCI-H522 lung = system: NCI-H522 lung
HCC-2998 colon = system: HCC-2998 colon
OVCAR-5 ovarian = system: OVCAR-5 ovarian
SK-MEL-28 melanoma = system: SK-MEL-28 melanoma
PC-3 prostate = system: PC-3 prostate
ACHN renal = system: ACHN renal
HT29 colon = system: HT29 colon
UACC-257 melanoma = system: UACC-257 melanoma
SF-295 CNS = system: SF-295 CNS
NCI-H460 lung = system: NCI-H460 lung
OVCAR-3 ovarian = system: OVCAR-3 ovarian
NCI-H23 lung = system: NCI-H23 lung

CN1CCN(c2ccc(Nc3cc(-c4cccc(-n5ccc6cc(C7CC7)cc(F)c6c5=O)c4CO)cn(C)c3=O)nc2)CC1
GI50 (MALME-3M melanoma): 2.25 µM
TGI (MALME-3M melanoma): 4.79 µM
GI50 (A498 renal): 2.51 µM
TGI (A498 renal): 9.26 µM
GI50 (HS 578T breast): 4.99 µM
TGI (HS 578T breast): 25.3 µM
GI50 (EKVX NSCLC): 2.62 µM
TGI (EKVX NSCLC): 9.11 µM
GI50 (DU-145 prostate): 7.9 µM
TGI (DU-145 prostate): 22 µM
GI50 (SNB-19 CNS): 3.15 µM
TGI (SNB-19 CNS): 15.4 µM
GI50 (NCI-H226 lung): 10.2 µM
TGI (NCI-H226 lung): 30.1 µM
GI50 (CAKI-1 renal): 2.66 µM
TGI (CAKI-1 renal): 10.8 µM
GI50 (A549 NSCLC): 5.27 µM
TGI (A549 NSCLC): 19.2 µM
GI50 (IGROV1 ovarian): 8.65 µM
TGI (IGROV1 ovarian): 25.7 µM
GI50 (UO-31 renal): 1.72 µM
TGI (UO-31 renal): 3.46 µM
GI50 (U251 CNS): 3.47 µM
TGI (U251 CNS): 14 µM
GI50 (HOP-92 NSCLC): 1.89 µM
TGI (HOP-92 NSCLC): 8.42 µM
GI50 (SK-OV-3 ovarian): 14.6 µM
TGI (SK-OV-3 ovarian): 29.5 µM
GI50 (COLO 205 colon): 2.22 µM
TGI (COLO 205 colon): 5.72 µM
GI50 (KM12 colon): 6.16 µM
TGI (KM12 colon): 31.1 µM
GI50 (UACC-62 melanoma): 2.4 µM
TGI (UACC-62 melanoma): 6.63 µM
GI50 (NCI/ADR-RES ovarian): 8.03 µM
TGI (NCI/ADR-RES ovarian): 33.4 µM
GI50 (SR leukemia): 1.79 µM
TGI (SR leukemia): 5.27 µM
GI50 (HCT-116 colon): 3.31 µM
TGI (HCT-116 colon): 18.9 µM
GI50 (MOLT-4 leukemia): 3.73 µM
TGI (MOLT-4 leukemia): 19.1 µM
GI50 (SNB-75 CNS): 1.33 µM
TGI (SNB-75 CNS): 2.96 µM
GI50 (M14 melanoma): 2.69 µM
TGI (M14 melanoma): 8.19 µM
GI50 (SW-620 colon): 4.74 µM
TGI (SW-620 colon): 23.9 µM
GI50 (CCRF-CEM leukemia): 2.19 µM
TGI (CCRF-CEM leukemia): 7.73 µM
GI50 (TK-10 renal): 3.69 µM
TGI (TK-10 renal): 14.3 µM
GI50 (SK-MEL-2 melanoma): 15 µM
TGI (SK-MEL-2 melanoma): 35.1 µM
GI50 (MDA-MB-231 breast): 2.26 µM
TGI (MDA-MB-231 breast): 6.17 µM
GI50 (786-0 renal): 2.01 µM
TGI (786-0 renal): 4.44 µM
GI50 (K-562 leukemia): 3.17 µM
TGI (K-562 leukemia): 12 µM
GI50 (HCT-15 colon): 5.11 µM
TGI (HCT-15 colon): 26.1 µM
GI50 (RPMI-8226 leukemia): 3.8 µM
TGI (RPMI-8226 leukemia): 19 µM
GI50 (SF-268 CNS): 5.58 µM
TGI (SF-268 CNS): 20.9 µM
GI50 (RXF 393 renal): 1.9 µM
TGI (RXF 393 renal): 5.37 µM
GI50 (MCF7 breast): 3.24 µM
TGI (MCF7 breast): 18.6 µM
GI50 (T-47D breast): 3.04 µM
TGI (T-47D breast): 15.9 µM
GI50 (HL-60(TB) leukemia): 2.21 µM
TGI (HL-60(TB) leukemia): 4.4 µM
GI50 (MDA-MB-435): 3.28 µM
TGI (MDA-MB-435): 14 µM
GI50 (SF-539 CNS): 1.82 µM
TGI (SF-539 CNS): 3.63 µM
GI50 (HOP-62 NSCLC): 3.97 µM
TGI (HOP-62 NSCLC): 20.7 µM
GI50 (LOX IMVI melanoma): 3.4 µM
TGI (LOX IMVI melanoma): 12.7 µM
GI50 (SN12C renal): 3.35 µM
TGI (SN12C renal): 13.9 µM
GI50 (OVCAR-8 ovarian): 4.84 µM
TGI (OVCAR-8 ovarian): 29.7 µM
GI50 (SK-MEL-5 melanoma): 11.9 µM
TGI (SK-MEL-5 melanoma): 31.1 µM
GI50 (NCI-H522 lung): 4.33 µM
TGI (NCI-H522 lung): 21 µM
GI50 (HCC-2998 colon): 10.4 µM
TGI (HCC-2998 colon): 35.8 µM
GI50 (OVCAR-5 ovarian): 2.82 µM
TGI (OVCAR-5 ovarian): 9.75 µM
GI50 (SK-MEL-28 melanoma): 4.1 µM
TGI (SK-MEL-28 melanoma): 17 µM
GI50 (PC-3 prostate): 8.93 µM
TGI (PC-3 prostate): 25.2 µM
GI50 (ACHN renal): 1.84 µM
TGI (ACHN renal): 3.76 µM
GI50 (HT29 colon): 3 µM
TGI (HT29 colon): 13.9 µM
GI50 (UACC-257 melanoma): 2.28 µM
TGI (UACC-257 melanoma): 5.03 µM
GI50 (SF-295 CNS): 10.5 µM
TGI (SF-295 CNS): 24.2 µM
GI50 (NCI-H460 lung): 3.83 µM
TGI (NCI-H460 lung): 15.7 µM
GI50 (OVCAR-3 ovarian): 3.12 µM
TGI (OVCAR-3 ovarian): 8.8 µM
GI50 (NCI-H23 lung): 13.6 µM
TGI (NCI-H23 lung): 37.3 µM
